Results on one molecule are retold here after patent publication US20250099486A1, “WOUND HEALING MEDICAMENT” (The University of Sheffield, priority 2017, published 2025).

The structures appear in SMILES notation.

In assay [1] the test system is full-thickness wounds (20 mm). Put plainly: Full-thickness excisional rat wound model. The assay is classed as in vivo, male Sprague-Dawley (SD) rats. The protocol:
For in vivo experiments, 20 mm diameter and 1.2 mm thickness circles of hydrogels were prepared. These samples were sterilized using ethanol (70%) solution, air dried and equilibrated in PBS briefly before placing on the wound. For animal trials, male Sprague-Dawley (SD) rats weighing 140-170 g were used in the study. The animals had free access to food and water and were kept in the animal house facility of the Centre of Excellence in Molecular Biology (CEMB), Lahore. All animals were treated according to procedures approved by the Institutional Animal Ethics Committee at CEMB, Lahore, Pakistan. Animals were anesthetized with ketamine (100 mg/kg body weight) and xylazine (10 mg/kg body weight) and then the fur from the dorsal side was removed with a hair trimmer (Dingling professional hair clipper, RF-608, China). The backs of the rats were completely shaved for adhesive tape fixation and dressing. After shaving, the backs were cleaned with ethanol and then they were transferred onto a clean sterilized table and three circular shaped wounds were created by removing skin at three marked areas with the help of surgical scissors (Noorani Surgical Medical Supplies, Pakistan). Immediately followed the excision process, one of these wounds was covered with sterilized, 2-deoxy-D-ribose-loaded (using 70% ethanol) membrane circles and the other was covered with the same material membranes but without any 2-deoxy-D-ribose. Both the implanted membranes were sutured in position using sterile braided silk sutures (Mersilk, diameter 220 microns). The scaffolds were covered with adhesive plaster (Mepore, Sweden), further dressed with cotton gauze and finally secured with white surgical adhesive tape (Nitto, Japan) to prevent damage from self-grooming. One of these wounds was kept open and covered with dressing only (Mepore, Sweden) to serve as a negative control.
Surgical dressings were removed after three days of membrane implantation. On days 0, 3, 9, 11, 14 and 17 post-wounding, the wounds were measured and photographed. The wound areas were quantified using Image j software. By the end of experiments, on day 17, rats were euthanized with an overdose of anaesthesia and tissue sections from Implantation sites of normal, sham, control and 2-deoxy-D-ribose-loaded scaffold treated groups were removed. The samples were fixed in 3.7% paraformaldehyde (Sigma-Aldrich, USA) solution for 24 hours at room temperature. They were dehydrated using various concentrations of ethanol and water from 70% to 100% and paraffin blocks were made.
Sections of 6 μm thick were cut from the paraffin embedded samples with a microtome (Leica TP 1020 Automatic Tissue Processor) and placed on Superfrost® plus slides (Menzel-Gläser, Denmark). Conventional Haematoxylin and Eosin (H&E) staining and Gouldner's trichrome staining was performed (Yar et al., International Journal of Polymeric Materials and Polymeric Biomaterials. 2016) before mounting in DPX mounting medium (Fisher Scientific) with a coverslip.
For immunohistochemistry, 6 μm sections were processed with a mouse/rabbit specific HRP/DAB (ABC) Detection IHC Kit (Abcam). After rehydration, antigen retrieval and protein blocking steps, the sections were incubated with 3 different monoclonal antibodies (rabbit anti-CD34 (Abcam) 1:1000, mouse anti-CD80 (Santa Cruz) 1:100 and mouse anti-CD163 (AbD Serotec) 1:300) for 2 hours diluted in 1% BSA (Sigma-Aldrich). This was followed by 10 min incubation with a secondary biotinylated goat anti-polyvalent antibody (Abcam Detection IHC Kit). After incubation with an avidin and biotinylated horseradish peroxidase, the target proteins were visualized by incubation in peroxidase substrate and DAB chromogen (Abcam Detection IHC Kit). Samples were then counterstained with haematoxylin, dehydrated, and mounted as per H&E protocol. Controls consisted of samples incubated without primary and secondary antibodies, or incubated only with secondary antibodies. […]

Assay [2] deals with CAM. Put plainly: Ex-ovo CAM assay, implantation of E2 and 2dDR releasing PHBV scaffolds. The assay is classed as in vivo, chicken (Gallus domesticus). Conditions: for mean vessel count: control 23.1 (±1.24). The method, then:
All CAM experiments were carried out according to the Home Office, UK guidelines. Fertilised chicken eggs (Gallus domesticus) were purchased from Henry Stewart & Co. (MedEggs, Norwich, UK). The eggs were carefully wiped with 20% industrial methylated spirit (IMS) solution using hand paper towels in order to remove dirt and feathers from the shell. The eggs were then incubated at 37.5° C. until embryonic development day (EDD) 3, lying horizontally in an humidified egg incubator (RCOM King SURO, P&T Poultry, Powys, Wales).
On EDD3, the upper surface of the eggs were marked with a felt pen. The eggs were held horizontally (with the marked surface on top) and cracked on the edge of a 1000 ml glass beaker and kept close to the bottom surface of petri dishes. The embryos were then transferred gently into sterile petri dishes and kept in a humidified incubator (Binder, Tuttlingen, Germany) at 38° C.
Scaffolds were cut into 5.5 mm diameter circles using a laser cutting machine (Epilog Laser Cutter, Clevedon, UK) and sterilised under UV light for 1 hour prior to implantation. Two circular scaffolds were placed on CAM at EDD8. Images of the scaffolds were acquired using a digital microscope at EDD 12 and EDD14. Microinjection of rhodamine labelled lectin into the circulation was performed, CAMs were removed and fixed in 3.7% formaldehyde solution. Embryos were then sacrificed at the end of EDD14. Angiogenesis was quantified by counting all blood vessels that converged towards the graft.
Haematoxylin and Eosin (H&E) staining was performed on cell impregnated scaffolds by modifiying a standard protocol. Briefly, fixed samples were embedded in optimal cutting temperature OCT and frozen in liquid nitrogen for 3 minutes. Sections were cut 8-10 μm thick using a cryostat (Leica Biosystems Nussloch, Germany) at −20° C. Sections were then stained with haematoxylin for 90 seconds and eosin for 5 minutes respectively. Finally H&E images were acquired under a light microscope (Motic DM-B1, Xiamen, China). The total number of blood vessels adjacent to the scaffolds were quantified by counting blood vessels in H&E sections [A. Minajeva, M. Kase, M. Saretok, A. Adamson-Raieste, S. Kase, K. Niinepuu, M Vardja, T. Asser, J. Jaal, Impact of Blood Vessel Quantity and Vascular Expression of CD133 and ICAM-1 on Survival of Glioblastoma Patients, Neurosci J. 2017 (2017) 8 pages] Briefly, all discernible blood vessels adjacent to the scaffolds were counted by two independent researchers using two independent microscopes at 10× magnification from the total of six different slides for each group and six different area of interest from each slide.

Setting [3] is: 17 days, loaded CS/collagen scaffold.

Turning to `O=CC[C@H](O)[C@H](O)CO` [2-deoxy-D-ribose], in assay [1] (setting [3]), the “epithelium and hair follicles (Goldner's trichrome)” value is “epithelium and hair follicles already formed”. In addition, the “wound healing by histology (H&E)” value in assay [1] (setting [3]) is given as “essentially complete”. The “vascularisation (staining for CD34 positive cells)” value in assay [1] (added to chitosan/collagen hydrogel) was “increase in vascularisation”. Besides, the “attachment of scaffold to the surrounding tissues” value in assay [1] (day 3, loaded CS/collagen scaffold) is “very much attached to the surrounding tissues”. For the same molecule, the wound area entry in assay [1] (day 9, loaded CS/collagen hydrogel) is listed as “around 50%”. Besides, the wound area healed entry in assay [1] (day 11, loaded CS/collagen hydrogel) is reported as “more than 50%”. The wound closure entry in assay [1] (day 17, loaded CS/collagen hydrogel) was “completely closed”. Besides, the wound healing entry in assay [1] (loaded in CS/collagen hydrogel) is listed as “accelerated”. Also, the mean vessel count in assay [2] (250 mg 2dDR loaded PHBV scaffolds) is reported as 48.6 (±1.02); in assay [2] (500 mg 2dDR loaded PHBV scaffolds) it was 37.1 (±1.37). For the same molecule, the “mean number of blood vessels adjacent to the scaffolds (H&E sections)” value in assay [2] (all concentrations, compared with controls and CAM only groups) is reported as “significantly increased”. The “number of discernible blood vessels growing towards the scaffolds in comparison with plain PHBV scaffolds” value in assay [2] (all groups of releasing PHBV scaffolds) is recorded as “at least doubled”.
